What was measured:
Format in all cases: in vivo
Oryza sativa (ORYSA) = test: Post-emergence crop plant compatibility, greenhouse pot test (also comparative test C); settings: for Post-emergence action against ORYSA (crop plant compatibility): vs untreated controls
Experimental: (§1) Seeds of monocotyledonous and dicotyledonous weeds and crop plants were placed in sandy loam in plastic or wood-fiber pots, covered with soil and cultivated in a greenhouse under controlled growth conditions. 2 to 3 weeks after sowing, the test plants were treated at the one-leaf stage. The compounds of the invention, formulated in the form of wettable powders (WP) or as emulsion concentrates (EC), were then sprayed onto the green parts of the plants as aqueous suspension or emulsion with addition of 0.5% additive at a water application rate of 600 l/ha (converted). After the test plants had been kept in the greenhouse under optimum growth conditions for about 3 weeks, the activity of the preparations was rated visually in comparison to untreated controls. For example, 100% activity=the plants have died, 0% activity=like control plants.
(§2) The observed effects on selected crop plants are reported here in comparison to the untreated controls (values in %). The appendices “a”, “b” and “c” give differentiation by different dosage with otherwise the same crop plants tested.
(§3) C. Comparative Herbicidal Action and Crop Plant Compatibility of Two Inventive Compounds (I.7-1 and I.7-115) with a Compound of Similar Structure Known from the Literature (WO2002/098227, a-17 and EP1106607, 3-14) in Post-Emergence Treatment.

Viola tricolor (VIOTR) = test: Post-emergence herbicidal action, greenhouse pot test
Experimental: as §1
(§4) Tables A1 to A14 below show the effects of selected compounds of the general formula (I) according to Tables I.1 to I.33 on various harmful plants and at an application rate corresponding to 20 g/ha and less, which were obtained by the experimental method specified above. The appendices “a”, “b” and “c” give differentiation by different dosage with otherwise the same harmful plants tested.

[1] = system: Pharbitis purpurea (PHBPU); test: as above
Experimental: as §1, §4

[2] = system: Polygonum convolvulus (POLCO); test: as above
Experimental: as §1, §4

[3] = system: Amaranthus retroflexus (AMARE); test: as above; settings: rated visually after about 3 weeks vs untreated controls, 100% = plants have died
Experimental: as §1, §4

[4] = system: Abutilon theophrasti (ABUTH); test: as above; settings: rated visually after about 3 weeks vs untreated controls, 100% = plants have died
Experimental: as §1, §4

Veronica persica (VERPE) = test: as above
Experimental: as §1, §4

[5] = system: Triticum aestivum (TRZAS); test: Post-emergence crop plant compatibility, greenhouse pot test; settings: vs untreated controls
Experimental: as §1, §2

Zea mays (ZEAMX) = test: as above; settings: 1.25 g/ha, vs untreated controls
Experimental: as §1, §2

Setaria viridis (SETVI) = test: Post-emergence herbicidal action, greenhouse pot test (also comparative test C); settings: for Post-emergence action against SETVI: 20 g/ha
Experimental: as §1, §4, §3
(§5) Tables C1-C4 below show the effects of two inventive compounds (I.7-1 and I.7-115) together with a compound of similar structure known from the literature (a-17 in WO2002/098227, and 3-14 in EP1106607) in different crop plants at an application rate corresponding to 5 g/ha or less, which have been obtained by the aforementioned experimental procedure.

[6] = system: Matricaria inodora (MATIN); test: as above
Experimental: as §1, §4, §3, §5

[7] = system: Echinochloa crus-galli (ECHCG); test: as above
Experimental: as §1, §4, §3, §5

[8] = system: Alopecurus myosuroides (ALOMY); test: as above; settings: 20 g/ha, rated visually after about 3 weeks vs untreated controls, 100% = plants have died
Experimental: as §1, §4, §3, §5

SMILES | Post-emergence action against VIOTR (Viola tricolor (VIOTR); 1.25 g/ha) | Post-emergence action against VIOTR (Viola tricolor (VIOTR); 5 g/ha) | Post-emergence action against VIOTR (Viola tricolor (VIOTR); 20 g/ha) | Post-emergence action against PHBPU in % ([1]; dosage 5 g/ha) | Post-emergence action against PHBPU in % ([1]; dosage 20 g/ha) | Post-emergence action against POLCO in % ([2]; dosage 20 g/ha) | Post-emergence action at 1.25 g/ha against AMARE in % [3] | Post-emergence action at 5 g/ha against AMARE in % [3] | Post-emergence action at 20 g/ha against AMARE in % [3] | Post-emergence action at 5 g/ha against ABUTH in % [4] | Post-emergence action at 20 g/ha against ABUTH in % [4] | Post-emergence action against VERPE (Veronica persica (VERPE); 5 g/ha) | Post-emergence action against VERPE (Veronica persica (VERPE); 20 g/ha) | Post-emergence action against TRZAS (crop plant compatibility) ([5]; 1.25 g/ha) | Post-emergence action against SETVI (Setaria viridis (SETVI)) | Post-emergence action against SETVI in % (Setaria viridis (SETVI); dosage 1.25 g/ha) | Post-emergence action against SETVI in % (Setaria viridis (SETVI); dosage 5 g/ha) | Post-emergence action against MATIN in % ([6]; dosage 20 g/ha) | Post-emergence action against ECHCG in % ([7]; dosage 5 g/ha) | Post-emergence action against ECHCG in % ([7]; dosage 20 g/ha) | also measured
COCCOC(=O)COc1ccccc1Oc1cc(-n2c(=O)cc(C(F)(F)F)n(C)c2=O)c(F)cc1C#N [I.9-1] | 100% | 100% | 100% | 100% | 100% | 100% | 100% | 100% | 100% | 100% | 100% | 100% | 100% | 0% | 100% | 80% | 100% | 100% | 90% | 100% | Post-emergence action against ORYSA (crop plant compatibility) (Oryza sativa (ORYSA); 1.25 g/ha): 0%; Post-emergence action against ORYSA (crop plant compatibility) (Oryza sativa (ORYSA); 5 g/ha): 20%; Post-emergence action at 1.25 g/ha against ABUTH in % [4]: 100%; Post-emergence action against VERPE (Veronica persica (VERPE); 1.25 g/ha): 100%; Post-emergence action against TRZAS (crop plant compatibility) ([5]; 5 g/ha): 10%; Post-emergence action against TRZAS (crop plant compatibility) ([5]; 20 g/ha): 10%; Post-emergence action against ZEAMX (crop plant compatibility) (Zea mays (ZEAMX)): 10%; Post-emergence action against MATIN in % ([6]; dosage 5 g/ha): 80%
Cn1c(C(F)(F)F)cc(=O)n(-c2cc(Oc3c(F)cccc3OCC(=O)OCC#N)c(Cl)cc2F)c1=O [I.19-176] | 80% | 100% | 100% | 100% | 100% | 100% | 100% | 100% | 100% | 100% | 100% | 100% | 100% | 20% | 100% | 90% | 100% | 100% | 100% | 100% | Post-emergence action against ORYSA (crop plant compatibility) (Oryza sativa (ORYSA); 1.25 g/ha): 0%; Post-emergence action against PHBPU in % ([1]; dosage 1.25 g/ha): 100%; Post-emergence action against POLCO in % ([2]; dosage 1.25 g/ha): 100%; Post-emergence action against POLCO in % ([2]; dosage 5 g/ha): 100%; Post-emergence action at 1.25 g/ha against ABUTH in % [4]: 100%; Post-emergence action against VERPE (Veronica persica (VERPE); 1.25 g/ha): 100%; Post-emergence action against MATIN in % ([6]; dosage 5 g/ha): 100%; Post-emergence action at 20 g/ha against ALOMY in % [8]: 80%
COCCOCCOC(=O)COc1ccc(F)cc1Oc1cc(-n2c(=O)cc(C(F)(F)F)n(C)c2=O)c(F)cc1Cl [I.23-23] | 100% | 100% | 100% | 100% | 100% | 100% | 100% | 100% | 100% | 100% | 100% | 100% | 100% | 20% | 100% | 100% | 100% | 100% | 100% | 100% | Post-emergence action against PHBPU in % ([1]; dosage 1.25 g/ha): 100%; Post-emergence action against POLCO in % ([2]; dosage 1.25 g/ha): 100%; Post-emergence action against POLCO in % ([2]; dosage 5 g/ha): 100%; Post-emergence action against ZEAMX (crop plant compatibility) (Zea mays (ZEAMX)): 20%; Post-emergence action at 20 g/ha against ALOMY in % [8]: 100%
Cn1c(C(F)(F)F)cc(=O)n(-c2cc(Oc3cc(F)ccc3OCC(=O)OCc3ccccn3)c(Cl)cc2F)c1=O [I.23-276] | 80% | 100% | 100% | 100% | 100% | 100% | 90% | 100% | 100% | 100% | 100% | 100% | 100% | 20% | 100% | 100% | 100% | 90% | 100% | 100% | Post-emergence action against ORYSA (crop plant compatibility) (Oryza sativa (ORYSA); 1.25 g/ha): 0%; Post-emergence action against ORYSA (crop plant compatibility) (Oryza sativa (ORYSA); 5 g/ha): 10%; Post-emergence action against ORYSA in % (Oryza sativa (ORYSA); 20 g/ha, crop plant compatibility): 10%; Post-emergence action against PHBPU in % ([1]; dosage 1.25 g/ha): 90%; Post-emergence action at 1.25 g/ha against ABUTH in % [4]: 90%; Post-emergence action against VERPE (Veronica persica (VERPE); 1.25 g/ha): 80%; Post-emergence action against TRZAS (crop plant compatibility) ([5]; 5 g/ha): 20%; Post-emergence action at 20 g/ha against ALOMY in % [8]: 100%; Post-emergence action at 1.25 g/ha against ECHCG in % ([7]; 1.25 g/ha, rated visually after about 3 weeks vs untreated controls, 100% = plants have died): 100%

Reference: patent US20240025862A1, “SUBSTITUTED N-PHENYLURACILS AND SALTS THEREOF, AND USE THEREOF AS HERBICIDAL ACTIVE SUBSTANCES” (Bayer Aktiengesellschaft, priority 2020, published 2024)
